US6310176A, “Antimicrobially active polypeptides” (SBL Vaccin AB, priority 1996, dated 2001)
Like-named read-outs stand apart in the source and are kept apart here. Where no end group is shown, it is not given here.

How the values were obtained:
Bacillus megaterium BM11 [1] = assay: Antimicrobial inhibition zone assay, B. megaterium; type: cell-based; details: B. megaterium BmII; inhibition zones on agarose plates
Description: (§1) Antimicrobial assay. The antibacterial activity was tested against Bacillus megaterium BM11, Staphylococcus aureus Cowahl, Streptococcus pyogenes b hemolytic group A, Pseudomonas aeruginosa ATCC 15692, Escherichia coli D21, E. coli D21e7, E. coli D21f1, E. coli D21f2 and E. coli D22, using an inhibition zone assay on LB broth/1% agarose plates seeded with 2×10^5 viable bacteria (Hultmark, D., Engstrom, A., Andersson, K., Steiner, H., Bennich, H. & Boman, H. G. (1983) Insect immunity. Attacin, a family of antibacterial proteins from Hyulophora cecropin, EMBO J. 2, 571-576). Fresh cultures of Candida albicans ATCC 10261 were inoculated in WB broth, pH 6.5, and grown at 37° C. to approximately 0.6 OD600. Before plating, cultures were diluted 300 fold and then incubated overnight at 37° C. in the presence of the test peptide, the concentration of which was established by amino acid analysis. Inhibition zones were measured and the lethal concentration (LC, the lowest concentration that inhibits the growth) was calculated from the diameter of the zones obtained in serial dilutions of the test substance by using the formula given in Hultmark, D., Engstrom, A., Andersson, K., Steiner, H., Bennich, H. & Boman, H. G. (1983) Insect immunity. […] Values are expressed as the mean of at least 5 experiments with a divergence of not more than one dilution step.

[2] = test system: Staphylococcus aureus Cowan1; assay: Antimicrobial inhibition zone assay, S. aureus; type: cell-based; details: inhibition zones on agarose plates
Description: as §1

Escherichia coli D21 [3] = assay: Antimicrobial inhibition zone assay, E. coli D21; type: cell-based; details: Table 2
Description: as §1, with “step. […]” for “step.”

Human red cells [4] = assay: Red blood cell lysis; type: cell-based
Bacillus megaterium BM11 [5] = details: B. megaterium BmII; cecropin data from Hultmark et al. (1983); cited from earlier work
[6] = test system: Staphylococcus aureus Cowan1; details: S. aureus Cowan1; cecropin data from Hultmark et al. (1983); cited from earlier work
Y. pseudotubercolosis = details: cecropin data from Hultmark et al. (1983); cited from earlier work
Escherichia coli D21 [7] = details: E. coli D21; cecropin data from Hultmark et al. (1983); cited from earlier work
Human red cells [8] = details: cecropin data from Hultmark et al. (1983); cited from earlier work

CC[C@H](C)[C@H](NC(=O)CN)C(=O)NCC(=O)N[C@@H](C)C(=O)N[C@H](C(=O)N[C@@H](CC(C)C)C(=O)N[C@@H](CCCCN)C(=O)N[C@H](C(=O)N[C@@H](CC(C)C)C(=O)N[C@H](C(=O)N[C@H](C(=O)NCC(=O)N[C@@H](CC(C)C)C(=O)N1CCC[C@H]1C(=O)N[C@@H](C)C(=O)N[C@@H](CC(C)C)C(=O)N[C@H](C(=O)N[C@@H](CO)C(=O)N[C@@H](Cc1c[nH]c2ccccc12)C(=O)N[C@H](C(=O)N[C@@H](CCCCN)C(=O)N[C@@H](CCCNC(=N)N)C(=O)N[C@@H](CCCCN)C(=O)N[C@@H](CCCNC(=N)N)C(=O)N[C@@H](CCC(N)=O)C(=O)N[C@@H](CCC(N)=O)C(N)=O)[C@@H](C)CC)[C@@H](C)CC)[C@@H](C)O)[C@@H](C)O)C(C)C)C(C)C [Melittin]
Lethal concentration (Bacillus megaterium BM11 [1]): 0.6 µM | Lethal concentration [2]: 0.2 µM | Lethal concentration (Escherichia coli D21 [3]): 0.8 µM | Lethal concentration (lytic activity) (Human red cells [4]): 0.9 µM

Cecropin A: cecropin from insect hemolymph (KWKLFKKIEKVGQNIRDGIIKAGPAVAVVGQATQIAK; ends and bridges not checked; UniProt P01507 27-63, looked up)
Lethal concentration (Bacillus megaterium BM11 [5]): 0.5 µM | Lethal concentration [6]: > 200 µM | Lethal concentration (Y. pseudotubercolosis): 0.5 µM | Lethal concentration (Escherichia coli D21 [7]): 0.3 µM | Lethal concentration (lytic activity) (Human red cells [8]): > 400 µM

FIGSALKVLAGVLPSVISWVKQ-NH2 [MLP]
Lethal concentration (lytic activity) (Human red cells [4]): 0.5 µM

FLPLIGRVLSGIL-NH2 [Temporin A]
Lethal concentration (lytic activity) (Human red cells [4]): > 120 µM

LLPIVGNLLKSLL-NH2 [Temporin B]
Lethal concentration (lytic activity) (Human red cells [4]): > 120 µM
